Tests used:
Assay type in all cases: in vivo
[1] = system: Echinochloa crus-galli var. formosensis; assay: Test Example 1: herbicidal effect test by soil application in paddy rice; settings: 120 g active ingredient per 10 ares, applied immediately after sowing, flooded pots, 14 days after application; for pest or weed control at 1200 g/ha: Echinochloa crus-galli, soil, 336 h, read-out: weed inhibition rate
How it was run: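 Flooded-pot paddy assay: sow at 0–1 cm, flood to about 3 cm, then apply diluted emulsifiable concentrate by dropper, 120 g a.i. per 10 ares; greenhouse-grown.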

[2] = system: Echinochloa crus-galli var. formosensis; assay: Test Example 2: herbicidal effect test by application during growth period of paddy rice; settings: 120 g per 10 ares, applied seven days after sowing, flooded pots, 14 days after application; for inhibition at 1200 g/ha: Echinochloa crus-galli, read-out: weed inhibition rate
How it was run: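 Greenhouse pots of flooded paddy soil, seeded shallowly with 30 seeds per weed, are treated on day 7 by dropper with diluted emulsifiable concentrate equal to 120 g a.i./10 a. Duplicate pots are scored for inhibition rate 14 days post-application.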

[3] = system: Echinochloa crus-galli var. formosensis; assay: Test Example 5: herbicidal effect test by soil application in paddy rice (low dose); settings: Echinochloa crus-galli, soil, 336 h; 7.5 g per 10 ares; applied immediately after sowing, flooded pots; 14 days after application; read-out: weed inhibition rate
Procedure: (§1) The present test was conducted in duplicate for each chemical concentration group, and the weed inhibition rate (%) was determined 14 days after chemical application using the following formula (Math. 1). [formula]
Wagner pots with an area of […] were filled with paddy soil, followed by addition of water and incorporation of chemical fertilizer (N:P:K = 16:16:16), after which puddling was performed. After that, seeds of Echinochloa crus-galli var. formosensis, broad-leaved weeds (Monochoria vaginalis), and Scirpus juncoides were sown at a depth of 0 cm to 1 cm, 30 seeds each. Immediately after sowing, the pots were flooded and a water depth of approximately 3 cm was maintained. Subsequent management was conducted in a glass greenhouse. Immediately thereafter, an emulsifiable concentrate prepared according to Formulation Example 5 using the compound shown below was diluted with water, and a specified amount of the diluted solution was applied by dropper. The amount of the active ingredient to be applied was equivalent to 7.5 g per 10 ares. […]

[4] = system: Echinochloa crus-galli var. formosensis; assay: Test Example 6: herbicidal effect test by application during growth period of paddy rice (low dose); settings: Echinochloa crus-galli; 7.5 g per 10 ares; applied seven days after sowing, flooded pots; 14 days after application; read-out: weed inhibition rate
Procedure: as §1
Wagner pots with an area of […] were filled with paddy soil, followed by addition of water and incorporation of chemical fertilizer (N:P:K = 16:16:16), after which puddling was performed. After that, seeds of Echinochloa crus-galli var. formosensis, broad-leaved weeds (Monochoria vaginalis), and Scirpus juncoides were sown at a depth of 0 cm to 1 cm, 30 seeds each. Immediately after sowing, the pots were flooded and a water depth of approximately 3 cm was maintained. Subsequent management was conducted in a glass greenhouse. Seven days after sowing, an emulsifiable concentrate prepared according to Formulation Example 5 using the compound shown below was diluted with water, and a specified amount of the diluted solution was applied by dropper. The amount of the active ingredient to be applied was equivalent to 7.5 g per 10 ares. The test was conducted in duplicate for each chemical concentration group, and the herbicidal effect was evaluated 14 days after chemical application using the same criteria as in Test Example 1.

[5] = system: Digitaria ciliaris; assay: Test Example 3: herbicidal effect test by soil application in upland field; settings: 120 g per 10 ares, sprayed one day after sowing, 14 days after application; for inhibition at 1200 g/ha: Digitaria ciliaris, read-out: weed inhibition rate
How it was run: (§2)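 Weed inhibition (%) was assessed 14 days after treatment, in duplicate per concentration group. Seeds had been mixed into the upper 1 cm of upland alluvial loam, and the soil surface was sprayed one day later with the diluted emulsifiable concentrate at 120 g active ingredient per 10 ares.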

[6] = system: Echinochloa crus-galli; assay: as above; settings: 120 g per 10 ares, sprayed one day after sowing, 14 days after application; for inhibition at 1200 g/ha: Echinochloa crus-galli, read-out: weed inhibition rate
How it was run: as §2

[7] = system: Digitaria ciliaris; assay: Test Example 4: herbicidal effect test by stem and leaf treatment in upland field; settings: 120 g per 10 ares, sprayed seven days after sowing, upland soil, 14 days after application; for inhibition at 1200 g/ha: Digitaria ciliaris, read-out: weed inhibition rate
[8] = system: Echinochloa crus-galli; assay: as above; settings: 120 g per 10 ares, sprayed seven days after sowing, upland soil, 14 days after application; for inhibition at 1200 g/ha: Echinochloa crus-galli, read-out: weed inhibition rate

CC(C)[C@]12C[C@@H](OCc3cccc4ccccc34)[C@](C)(C[C@@H]1Br)O2 [1-715, (1S,2R,4R,5S)-5-bromo-1-methyl-2-(naphthalen-1-ylmethoxy)-4-isopropyl-7-oxabicyclo[2.2.1]heptane]
≥ 80%: pest or weed control at 1200 g/ha [1] | inhibition at 1200 g/ha [2] | inhibition at 75 g/ha [3] | inhibition at 75 g/ha [4]

CC(C)C12CC(OCc3ccccc3I)C(C)(CC1Br)O2 (stereo not drawn) [1-1364, 5-bromo-2-[(2-iodophenyl)methoxy]-1-methyl-4-isopropyl-7-oxabicyclo[2.2.1]heptane]
≥ 80%: pest or weed control at 1200 g/ha [1] | inhibition at 1200 g/ha [2] | inhibition at 1200 g/ha [5] | inhibition at 1200 g/ha [6] | inhibition at 1200 g/ha [7] | inhibition at 1200 g/ha [8]

CC(C)C12CC(OCc3cccc(I)c3)C(C)(CC1Br)O2 (stereo not drawn) [1-1365, 5-bromo-2-[(3-iodophenyl)methoxy]-1-methyl-4-isopropyl-7-oxabicyclo[2.2.1]heptane]
≥ 80%: pest or weed control at 1200 g/ha [1] | inhibition at 1200 g/ha [2] | inhibition at 1200 g/ha [5] | inhibition at 1200 g/ha [6] | inhibition at 1200 g/ha [7] | inhibition at 1200 g/ha [8]

CC(C)C12CC(OCc3ccccc3C(F)(F)F)C(C)(CC1Br)O2 (stereo not drawn) [1-1367, 5-bromo-1-methyl-4-isopropyl-2-[[2-(trifluoromethyl)phenyl]methoxy]-7-oxabicyclo[2.2.1]heptane]
≥ 80%: pest or weed control at 1200 g/ha [1] | inhibition at 1200 g/ha [2] | inhibition at 1200 g/ha [5] | inhibition at 1200 g/ha [6] | inhibition at 1200 g/ha [7] | inhibition at 1200 g/ha [8]

CC(C)C12CC(OCc3ccccc3C#N)C(C)(CC1Br)O2 (stereo not drawn) [1-1370, 2-[(5-bromo-1-methyl-4-isopropyl-7-oxabicyclo[2.2.1]heptan-2-yl)oxymethyl]benzonitrile]
≥ 80%: pest or weed control at 1200 g/ha [1] | inhibition at 1200 g/ha [2] | inhibition at 1200 g/ha [5] | inhibition at 1200 g/ha [6] | inhibition at 1200 g/ha [7] | inhibition at 1200 g/ha [8]

COC(=O)c1ccccc1COC1CC2(C(C)C)OC1(C)CC2Br (stereo not drawn) [1-1376, methyl 2-[(5-bromo-1-methyl-4-isopropyl-7-oxabicyclo[2.2.1]heptan-2-yl)oxymethyl]benzoate]
≥ 80%: pest or weed control at 1200 g/ha [1] | inhibition at 1200 g/ha [2] | inhibition at 1200 g/ha [5] | inhibition at 1200 g/ha [6] | inhibition at 1200 g/ha [7] | inhibition at 1200 g/ha [8]

CC(C)C12CC(OCc3c(Cl)cccc3Cl)C(C)(CC1Br)O2 (stereo not drawn) [1-1380, 5-bromo-2-[(2,6-dichlorophenyl)methoxy]-1-methyl-4-isopropyl-7-oxabicyclo[2.2.1]heptane]
≥ 80%: pest or weed control at 1200 g/ha [1] | inhibition at 1200 g/ha [2] | inhibition at 1200 g/ha [5] | inhibition at 1200 g/ha [6] | inhibition at 1200 g/ha [7] | inhibition at 1200 g/ha [8]

CC(C)C12CC(OCc3cccc4ccccc34)C(C)(CC1Br)O2 (stereo not drawn) [1-1383, 5-bromo-1-methyl-2-(naphthalen-1-ylmethoxy)-4-isopropyl-7-oxabicyclo[2.2.1]heptane]
≥ 80%: pest or weed control at 1200 g/ha [1] | inhibition at 1200 g/ha [2] | inhibition at 1200 g/ha [5] | inhibition at 1200 g/ha [6] | inhibition at 1200 g/ha [7] | inhibition at 1200 g/ha [8]

CC(C)C12CC(OCc3ccc(Cl)cc3Cl)C(C)(CC1Br)O2 (stereo not drawn) [1-1385, 5-bromo-2-[(2,4-dichlorophenyl)methoxy]-1-methyl-4-isopropyl-7-oxabicyclo[2.2.1]heptane]
≥ 80%: pest or weed control at 1200 g/ha [1] | inhibition at 1200 g/ha [2] | inhibition at 1200 g/ha [5] | inhibition at 1200 g/ha [6] | inhibition at 1200 g/ha [7] | inhibition at 1200 g/ha [8]

Cc1cccc(C)c1COC1CC2(C(C)C)OC1(C)CC2Br (stereo not drawn) [1-1599, 5-bromo-2-[(2,6-dimethylphenyl)methoxy]-1-methyl-4-isopropyl-7-oxabicyclo[2.2.1]heptane]
≥ 80%: pest or weed control at 1200 g/ha [1] | inhibition at 1200 g/ha [2] | inhibition at 1200 g/ha [5] | inhibition at 1200 g/ha [6] | inhibition at 1200 g/ha [7] | inhibition at 1200 g/ha [8]

CC(C)[C@@]12C[C@H](OCc3c(F)cccc3Br)[C@@](C)(C[C@H]1I)O2 [1-1601, (1R,2S,4S,5R)-2-[(2-bromo-6-fluorophenyl)methoxy]-5-iodo-1-methyl-4-isopropyl-7-oxabicyclo[2.2.1]heptane]
≥ 80%: pest or weed control at 1200 g/ha [1] | inhibition at 1200 g/ha [2] | inhibition at 1200 g/ha [5] | inhibition at 1200 g/ha [6] | inhibition at 1200 g/ha [7] | inhibition at 1200 g/ha [8]

CC(C)[C@]12C[C@@H](OCc3ccccc3F)[C@](C)(C[C@@H]1OCC(F)(F)F)O2 [1-1605, (1S,2R,4R,5S)-2-[(2-fluorophenyl)methoxy]-1-methyl-4-isopropyl-5-(2,2,2-trifluoroethoxy)-7-oxabicyclo[2.2.1]heptane]
≥ 80%: pest or weed control at 1200 g/ha [1] | inhibition at 1200 g/ha [2] | inhibition at 1200 g/ha [5] | inhibition at 1200 g/ha [6] | inhibition at 1200 g/ha [7] | inhibition at 1200 g/ha [8]

CC(C)[C@]12C[C@@H](OCc3ccccc3F)[C@](C)(C[C@@H]1OCc1ccccc1)O2 [1-1606, (1S,2R,4R,SS)-2-[(2-fluorophenyl)methoxy]-1-methyl-5-phenylmethoxy-4-isopropyl-7-oxabicyclo[2.2.1]heptane]
≥ 80%: weed inhibition rate [1] | weed inhibition rate [2] | weed inhibition rate [5] | weed inhibition rate [6] | weed inhibition rate [7] | weed inhibition rate [8]

Cc1cccc(C)c1CO[C@H]1C[C@@]2(C(C)C)O[C@]1(C)C[C@H]2Br [1-1608, (1R,2S,4S,5R)-5-bromo-2-[(2,6-dimethylphenyl)methoxy]-1-methyl-4-isopropyl-7-oxabicyclo[2.2.1]heptane]
≥ 80%: pest or weed control at 1200 g/ha [1] | inhibition at 1200 g/ha [2] | inhibition at 1200 g/ha [5] | inhibition at 1200 g/ha [6] | inhibition at 1200 g/ha [7] | inhibition at 1200 g/ha [8]

CC(C)[C@@]12C[C@H](OCc3c(F)cccc3Br)[C@@](C)(C[C@H]1Br)O2 [1-1609, (1R,2S,4S,5R)-5-bromo-2-[(2-bromo-6-fluorophenyl)methoxy]-1-methyl-4-isopropyl-7-oxabicyclo[2.2.1]heptane]
≥ 80%: pest or weed control at 1200 g/ha [1] | inhibition at 1200 g/ha [2] | inhibition at 1200 g/ha [5] | inhibition at 1200 g/ha [6] | inhibition at 1200 g/ha [7] | inhibition at 1200 g/ha [8]

COc1ccccc1CO[C@@H]1C[C@]2(C(C)C)O[C@@]1(C)CC2=O [2-7, (1R,4S,5R)-1-isopropyl-5-((2-methoxybenzyl)oxy)-4-methyl-7-oxabicyclo[2.2.1]heptan-2-one]
≥ 80%: pest or weed control at 1200 g/ha [1] | inhibition at 1200 g/ha [2] | inhibition at 75 g/ha [3] | inhibition at 1200 g/ha [7] | inhibition at 1200 g/ha [8]

CC(C)[C@]12C[C@@H](OCc3ccccc3OC(F)(F)F)[C@](C)(CC1=O)O2 [2-348, (1R,4S,5R)-1-isopropyl-4-methyl-5-((2-(trifluoromethoxy)benzyl)oxy)-7-oxabicyclo[2.2.1]heptan-2-one]
≥ 80%: pest or weed control at 1200 g/ha [1] | inhibition at 1200 g/ha [2] | inhibition at 1200 g/ha [5] | inhibition at 1200 g/ha [6] | inhibition at 1200 g/ha [7] | inhibition at 1200 g/ha [8]

— patent EP4707280A1, “1,4-CINEOLE DERIVATIVE AND INTERMEDIATE THEREOF, HERBICIDE CONTAINING SAID DERIVATIVE AS ACTIVE INGREDIENT, METHOD FOR USING HERBICIDE, AND METHOD FOR PREPARING AGROCHEMICAL COMPOSITION” (HOKKO CHEMICAL INDUSTRY CO., LTD., priority 2023, dated 2024)
